Measurements: patent publication US11008340B2, “Modulators of ROR-gamma” (Vitae Pharmaceuticals, LLC, priority 2015, dated 2021)
Like-named read-outs stand apart in the source and are kept apart here.

Assays:
[1] = target: T1, recombinant RORγ Ligand Binding Domain (LBD) protein (Homo sapiens, UniProt P51449); experiment: Radio-Ligand RORγ Binding Assay (Assay 1); conditions: radio-ligand competition, 25-hydroxy [26,27-3H]-cholesterol, RORγ LBD; read-out: Avg ROR Bind Ki
T1 construct: 6×His; GST
T1 sequence (P51449 269-508 limits assumed): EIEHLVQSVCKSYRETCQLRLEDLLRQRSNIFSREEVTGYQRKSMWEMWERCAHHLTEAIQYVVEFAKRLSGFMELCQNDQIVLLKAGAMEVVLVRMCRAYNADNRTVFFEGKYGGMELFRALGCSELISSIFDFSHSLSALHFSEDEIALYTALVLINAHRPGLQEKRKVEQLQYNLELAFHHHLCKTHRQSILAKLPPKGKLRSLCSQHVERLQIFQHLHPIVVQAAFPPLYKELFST
Experimental: Radio-Ligand RORγ Binding Assay (Assay 1)
Compounds described herein were tested for ability to bind to RORγ in a cell-free competition assay with commercially available radio-ligand (RL), 25-hydroxy [26,27-^3H]-cholesterol (PerkinElmer, Cat. #NET674250UC), for a ligand binding site on a recombinant RORγ Ligand Binding Domain (LBD) protein expressed as a 6×His-Glutathione-S-Transferase (GST) fusion. The assay was performed in 96-well SPA plates (PerkinElmer, Cat. #1450-401) in 50 mM HEPES buffer, pH 7.4, containing 150 mM NaCl, 5 mM MgCl2, 10% (v/v) glycerol, 2 mM CHAPS, 0.5 mM 3-octylglucopyranoside and 5 mM DTT. Tested compounds were dissolved in DMSO, and semi-log (3.162×) serial dilutions of the compounds were prepared in the same solvent. Two μL of the DMSO solutions were mixed with 28 μL of 8.6 nM 25-hydroxy [26,27-^3H]-cholesterol and 50 μL of 24 nM RORγ LBD. The plate was shaken at 700 rpm for 20 min and incubated for 10 min at rt, after which 40 μL of poly-Lys YSi SPA beads (PerkinElmer, Cat. #RPNQ0010) were added to achieve 50 μg of the beads per well. The plate was incubated on an orbital shaker for 20 min and then for 10 min without agitation at rt. SPA signal for tritium beta radiation was registered on PerkinElmer Microbeta plate reader. […] The percent inhibition vs. concentration data were fit into a four-parameter model, and IC50 values were calculated from the fit as the concentrations corresponding to the inflection points on the dose-response curves. Inhibitory constants (Ki) were calculated using the following equation, where [RL] is the concentration in the assay and KD is a dissociation constant of 25-hydroxy [26,27-^3H]-cholesterol: […]

[2] = target: T2, full-length RORγt in Jurkat cells (Homo sapiens, UniProt P51449); experiment: RORγt 5×RORE Assay in Jurkat Cells (Assay 2); type: cell-based; conditions: 5×RORE luciferase reporter
T2 construct: transcriptional activity of the full-length RORγt in Jurkat cells; host or cells: Jurkat cells (ATCC TIB-152)
T2 sequence (P51449 1-497 isoform P51449-2): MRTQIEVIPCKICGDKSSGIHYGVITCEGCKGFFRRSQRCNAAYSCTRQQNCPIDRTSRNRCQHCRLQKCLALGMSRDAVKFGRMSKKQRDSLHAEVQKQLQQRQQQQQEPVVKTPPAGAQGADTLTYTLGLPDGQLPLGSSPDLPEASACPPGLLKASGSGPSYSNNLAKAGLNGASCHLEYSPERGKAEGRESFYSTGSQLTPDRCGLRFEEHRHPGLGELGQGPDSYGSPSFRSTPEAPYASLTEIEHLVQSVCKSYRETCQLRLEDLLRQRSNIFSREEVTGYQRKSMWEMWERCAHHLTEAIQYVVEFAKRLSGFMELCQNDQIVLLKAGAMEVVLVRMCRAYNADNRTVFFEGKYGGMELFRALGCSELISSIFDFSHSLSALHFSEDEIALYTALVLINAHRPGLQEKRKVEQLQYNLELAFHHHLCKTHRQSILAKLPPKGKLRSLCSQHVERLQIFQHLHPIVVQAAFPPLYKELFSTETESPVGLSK
Experimental: [formula] RORγt 5×RORE Assay in Jurkat Cells (Assay 2)
Compounds described herein were tested for RORγ inverse agonist activity in a cell-based, transcriptional activity assay. Secreted Nanoluc″ luciferase was used as a reporter for transcriptional activity of the full-length RORγt in Jurkat cells (ATCC, Cat. #TIB-152). A reporter plasmid was constructed by inserting 5 repeats of the ROR Response Element (RORE) […] (SEQ ID NO: 1) into a commercially available promoterless plasmid pNL1.3[secNluc] (Promega, Cat. #N1021) using KpnI and HindIII restriction sites. The expression plasmid for RORγt was purchased (Geneocopoeia, Cat. #EX-T6988-M02). Jurkat cells (30 million cells) were transfected with 11 μg of EX-T6988-MO2 and 26 μg of the reporter plasmid in OptiMEM® media using Lipofectamine LTX and Plus™ reagents (Life Technologies, Cat. #15338-100). After 5-6 hrs of incubation at 37° C./5% CO2, the cells were collected, resuspended in phenol-red free RPMI media containing 10% (v/v) delipidated FBS (Hyclone, Cat. #SH30855.03) and dispensed into 96-well clear bottom tissue culture plates (CoStar, Cat. #3603), at 80,000 cells per well. Tested compounds were added to the cells in the same media (final concentration of DMSO was 0.1% (v/v)), and the plates were incubated at 37° C./5% CO2 for 16-18 hrs. Luciferase activity in the conditioned supernatants was determined with NanoGlo® assay reagents (Promega, Cat. #N1130).

[3] = Table 20, read-out: Avg ROR γt/5x IC5

Ki [1] [nM]	IC50 ([2]; read-out: Avg ROR γt/5x IC50) [nM]	IC50 [2, 3] [nM]	Compound
< 100	< 100	–	CCS(=O)(=O)c1ccc([C@H](CO)NC(=O)c2ccc3c(OC[C@H]4CC[C@H](C(F)(F)F)CC4)nc(Cl)cc3c2)cc1 [Hy1A-11, 3-chloro-N-((R)-1-(4-(ethylsulfonyl)phenyl)-2-hydroxyethyl)-1-(((1r,4R)-4-(trifluoromethyl)cyclohexyl)methoxy)isoquinoline-6-carboxamide]
< 100	–	> 1000	CCC1CN(c2ncc(C(F)(F)F)cn2)Cc2cc(C(=O)N[C@@H](CO)c3ccc(S(=O)(=O)CC)cc3)ccc21 (single isomer, unassigned) [Hy7-17.2]
< 100	< 100	–	CCS(=O)(=O)c1ccc(CNC(=O)c2ccc3c(c2)CCN(Cc2ccc(C#N)cc2)[C@H]3C(C)C)cc1 (single isomer, unassigned) [Hy2A-15.1]
< 100	> 1000	–	CCS(=O)(=O)c1ccc(CNC(=O)c2ccc3c(OC4CCC(C(F)(F)F)CC4)nccc3c2)cc1 (single isomer, unassigned) [Hy1A-3.1, N-(4-(ethylsulfonyl)benzyl)-1-(((1s,4s)-4-(trifluoromethyl)cyclohexyl)oxy)isoquinoline-6-carboxamide]
< 100	–	> 1000	CC[C@H]1CN(c2ncc(Cl)cn2)Cc2cc(C(=O)N[C@@H](CO)c3ccc(S(=O)(=O)CC)cc3)ccc21 (single isomer, unassigned) [Hy7-6.2]
< 100	–	100 to 1000	CC[C@@H]1CN(c2ccc(C(F)(F)F)cc2)C(=O)c2cc(C(=O)NCc3ccc(S(=O)(=O)CC)cc3)ccc21 (single isomer, unassigned) [Hy7-12.1]
< 100	< 100	–	CCc1c2ccc(C(=O)N[C@@H](CO)c3ccc(S(=O)(=O)CC)cc3)cc2nn1C[C@H]1CC[C@H](C(F)(F)F)CC1 [Hy3A-5, 3-ethyl-N-((R)-1-(4-(ethylsulfonyl)phenyl)-2-hydroxyethyl)-2-(((1r,4R)-4-(trifluoromethyl)cyclohexyl)methyl)-2H-indazole-6-carboxamide]
< 100	100 to 1000	–	CCS(=O)(=O)c1ccc([C@H](CO)NC(=O)c2ccc3c(OCc4ccc(C(F)(F)F)cc4)nccc3c2)cc1 [Hy1A-7, (R)-N-(1-(4-(ethylsulfonyl)phenyl)-2-hydroxyethyl)-1-((4-(trifluoromethyl)benzyl)oxy)isoquinoline-6-carboxamide]
< 100	< 100	–	CCS(=O)(=O)c1ccc(CNC(=O)c2cnc3c(C4CC4)n(C[C@H]4CC[C@H](C(F)(F)F)CC4)nc3c2)cc1 [Hy3B-2, 3-cyclopropyl-N-(4-(ethylsulfonyl)benzyl)-2-(((1r,4r)-4-(trifluoromethyl)cyclohexyl)methyl)-2H-pyrazolo[4,3-b]pyridine-6-carboxamide]
< 100	< 100	–	CCS(=O)(=O)c1ccc([C@H](CO)NC(=O)c2ccc3c(OCC4CCC(F)(F)CC4)nc(C)cc3c2)cc1 [Hy1A-14, (R)-1-((4,4-difluorocyclohexyl)methoxy)-N-(1-(4-(ethylsulfonyl)phenyl)-2-hydroxyethyl)-3-methylisoquinoline-6-carboxamide]
< 100	–	< 100	CC[C@@H]1CN(c2ncc(-c3cccc(OC)n3)cn2)Cc2cc(C(=O)NCc3ccc(S(=O)(=O)CC)cc3)ccc21 (single isomer, unassigned) [Hy7-20.1]
< 100	< 100	–	CCC1c2ccc(C(=O)NC(CO)c3ccc(S(=O)(=O)CC)cc3)cc2CCN1CC1CCC(C(F)(F)F)CC1 (single isomer, unassigned) [Hy2A-28.1]

Continued, molecule first:

Compound	Ki [1] [nM]	IC50 ([2]; read-out: Avg ROR γt/5x IC50) [nM]	IC50 [2, 3] [nM]
CCS(=O)(=O)c1ccc([C@H](CO)NC(=O)c2sc3nc(C)nc(OC[C@H]4CC[C@H](C(F)(F)F)CC4)c3c2C)cc1 [Hy6-4, N-((R)-1-(4-(ethylsulfonyl)phenyl)-2-hydroxyethyl)-2,5-dimethyl-4-(((1r,4R)-4-(trifluoromethyl)cyclohexyl)methoxy)thieno[2,3-d]pyrimidine-6-carboxamide]	< 100	< 100	–
CCC1CN(c2ncc(C(F)(F)F)cn2)Cc2cc(C(=O)N[C@@H](CO)c3ccc(S(=O)(=O)CC)cc3)ccc21 (single isomer, unassigned) [Hy7-17.1]	< 100	–	< 100
CCS(=O)(=O)c1ccc(CNC(=O)c2cn(C)c3c(OCc4ccc(C(F)(F)F)cc4)nccc23)cc1 [Hy5-3, N-(4-(ethylsulfonyl)benzyl)-1-methyl-7-((4-(trifluoromethyl)benzyl)oxy)-1H-pyrrolo[2,3-c]pyridine-3-carboxamide]	< 100	< 100	–
CCOC(=O)c1cnc(N2CCc3cc(C(=O)NCc4ccc(S(=O)(=O)CC)cc4)ccc3[C@@H]2C(C)C)nc1C(F)(F)F (single isomer, unassigned) [Hy2A-5.1]	< 100	100 to 1000	–
CCS(=O)(=O)c1ccc(CNC(=O)c2ccc3c(c2)CN(c2nccc(C(F)(F)F)n2)C[C@H]3C(C)C)cc1 (single isomer, unassigned) [Hy7-14.1]	< 100	–	> 1000
CCc1cc2cc(C(=O)NCc3ccc(S(=O)(=O)CC)cc3)ccc2c(OC[C@H]2CC[C@H](C(F)(F)F)CC2)n1 [Hy1A-20, 3-ethyl-N-(4-(ethylsulfonyl)benzyl)-1-(((1r,4r)-4-(trifluoromethyl)cyclohexyl)methoxy)isoquinoline-6-carboxamide]	< 100	< 100	–
CCS(=O)(=O)c1ccc([C@H](CO)NC(=O)c2ccc3c(OC[C@H]4CC[C@H](C(F)(F)F)CC4)nc(C)cc3c2)cc1 [Hy1A-10, N-((R)-1-(4-(ethylsulfonyl)phenyl)-2-hydroxyethyl)-3-methyl-1-(((1r,4R)-4-(trifluoromethyl)cyclohexyl)methoxy)isoquinoline-6-carboxamide]	< 100	< 100	–
CCS(=O)(=O)c1ccc(CNC(=O)c2ccc3c(c2)CCN(Cc2ccc(C#N)cn2)[C@H]3C(C)C)cc1 (single isomer, unassigned) [Hy2A-16.1]	< 100	< 100	–
CCS(=O)(=O)c1ccc(CNC(=O)c2ccc3c(c2)CN(c2ncc(F)cn2)C[C@@H]3C(C)C)cc1 (single isomer, unassigned) [Hy7-1.2]	< 100	–	> 1000
CCS(=O)(=O)c1ccc(CNC(=O)c2ccc3c(c2)CCN(CC2CCN(C(=O)OC)CC2)[C@H]3C(C)C)cc1 [Hy2A-24, methyl (S)-4-((6-((4-(ethylsulfonyl)benzyl)carbamoyl)-1-isopropyl-3,4-dihydroisoquinolin-2(1H)-yl)methyl)piperidine-1-carboxylate]	100 to 1000	100 to 1000	–
